Read-outs that look alike come from different tables or passages of the source.
Experiments:
[1] = parameters: method as in references provided in Table 4; settings: therapeutic concentrations, used to calculate EC50/Cmax; ref references provided in Table 4; cited from earlier work
man = settings: cited from earlier work
Upcyte hepatocytes = assay: Cytotoxicity (intracellular ATP, CellTiter Glo) in Upcyte hepatocytes; format: cell-based, human; settings: Upcyte cells, 24 or 72 h, all test sites, up to highest dose
Description: The cells were then centrifuged (90×g; 5 min; room temperature) and resuspended in fresh Upcyte High Performance Medium (Medicyte, Heidelberg, Germany). Cell number and viability were determined via the trypan blue exclusion method, and the cells were seeded at 18,750 cells/well in white/clear bottom 96-well plates (Beckton Dickinson, New Jersey, USA). After seeding, the cells were incubated for 72 h (37 °C; 5 % CO2; 95 % air) without additional medium change prior to compound treatment.
The compound concentrations used were chosen as representative for each compound when conducting an in vitro safety assessment study. […] Stock aliquots were stored at −20 °C and only thawed once. […]
(§1) The CellTiter Glo assay kit (Promega, Madison, WI, USA) was used to determine the ATP content in the cells after exposure to the thirteen compounds for 24 or 72 h. […] The supernatant samples were transferred into opaque flat-bottomed 96-well plates (Greiner-Bio-One, Frickenhausen, Germany) and the luminescence measured.
(§2) Cell viability was determined as the percentage of the fluorescent resorufin after incubation with resazurin in the treated cells compared with vehicle control or the percentage of ATP detected in the treated cells compared with vehicle control. Individual EC50 values from all participants were calculated using GraphPad Prism 6 (version 6.03) at one partner site. […]

HepG2/ECACC cells = assay: Cytotoxicity (intracellular ATP, CellTiter Glo) in HepG2/ECACC cells; format: cell-based, human; settings: 24 or 72 h, all test sites, up to highest dose
Description: A specific clone of HepG2 cells was purchased from the European Collection of Cell Cultures (ECACC). The cells were cultivated and low passage frozen stocks were generated and banked by one MIP-DILI partner designated as the cell bank. The cells were distributed to the relevant MIP-DILI partners. […] Cell number and viability were determined using the trypan blue exclusion method, and the cells were plated at a seeding density of 20,000 cells/well in BD Biocoat Collagen I 96-well plates (Beckton Dickinson, New Jersey, USA). […]
as §1, §2

[2] = tested on: cryopreserved HepaRG cells; assay: Cytotoxicity (intracellular ATP, CellTiter Glo) in cryopreserved HepaRG cells; format: cell-based, human; settings: 24 or 72 h, all test sites, up to highest dose
Description: Differentiated cryopreserved HepaRG cells were purchased from Biopredic International (Saint-Gregoire, France). The cells were thawed in Thawing/Plating Medium [Williams’ Medium E supplemented with 1 % penicillin/streptomycin, 1 % L-Glutamine, 10 % FCS and 12.5 % ADD670 cocktail (BioPredic International, Saint-Gregoire, France; proprietary medium composition)], centrifuged (500×g; 5 min; room temperature) and then resuspended in fresh Thawing/Plating Medium. After the addition of the ADD670 cocktail, the final DMSO concentration in the Thawing/Plating Medium was 0.5 %. Cell number and viability were determined by the trypan blue exclusion method, and the cells were plated at a seeding density of 72,000 cells/well in white/clear bottom 96-well plates (Beckton Dickinson, New Jersey, USA). […]
as §1
Cell viability was determined as the percentage of the fluorescent resorufin after incubation with resazurin in the treated cells compared with vehicle control or the percentage of ATP detected in the treated cells compared with vehicle control. […]

[3] = tested on: primary human hepatocytes (PHH); assay: Cytotoxicity (intracellular ATP, CellTiter Glo) in primary human hepatocytes; format: cell-based; settings: cryopreserved PHH, 24 or 72 h, all test sites, up to highest dose
Description: Cryopreserved PHH from five donors were provided by KaLy-Cell (Plobsheim, France). […] Cell number and viability were determined by the trypan blue exclusion method, and the cells were plated at a seeding density of 70,000 cells/well of a KaLy-Cell home-coated type I rat tail collagen (10 µg/well) 96-well plate. […]
as §1, §2

[4] = reported to cause hepatotoxicity in man or not, ref references in Table 4

SMILES	Cmax [1] [nM]	Hepatotoxic/non-hepatotoxic (man; [4])	other results
C1CCC(C(CC2CCCCN2)C2CCCCC2)CC1 (stereo not drawn) [Perhexiline]	1520	Hepatotoxic	
CCc1nn(CCCN2CCN(c3cccc(Cl)c3)CC2)c(=O)n1CCOc1ccccc1 [Nefazodone]	859	Hepatotoxic	
CCN(CC)C(=O)/C(C#N)=C/c1cc(O)c(O)c([N+](=O)[O-])c1 [Entacapone]	1500	Non-hepatotoxic	
CCc1ccc(CCOc2ccc(CC3SC(=O)NC3=O)cc2)nc1 (stereo not drawn) [Pioglitazone]	2670	Non-hepatotoxic	
CCOC(=O)CN[C@@H](C(=O)N1CC[C@H]1C(=O)NCc1ccc(/C(N)=N\O)cc1)C1CCCCC1 [Ximelagatran]			toxicity (cell viability) (Upcyte hepatocytes): no toxicity was detected even at the highest doses; toxicity (cell viability) (HepG2/ECACC cells): no toxicity was detected even at the highest doses; toxicity (cell viability) [2]: no toxicity was detected even at the highest doses; toxicity (cell viability) [3]: no toxicity was detected even at the highest doses
Cc1ccc(C(=O)c2cc(O)c(O)c([N+](=O)[O-])c2)cc1 [Tolcapone]	27800	Hepatotoxic	
COc1ccccc1Oc1c(NS(=O)(=O)c2ccc(C(C)(C)C)cc2)nc(-c2ncccn2)nc1OCCO [Bosentan]		Hepatotoxic	
Cc1c(C)c2c(c(C)c1O)CCC(C)(COc1ccc(CC3SC(=O)NC3=O)cc1)O2 (stereo not drawn) [Troglitazone]	6390	Hepatotoxic	
O=C1CC2(CCCC2)CC(=O)N1CCCCN1CCN(c2ncccn2)CC1 [Buspirone]		Non-hepatotoxic	
CC(=O)Nc1ccc(O)cc1 [Paracetamol]		Hepatotoxic	
CN(C)C(=N)N=C(N)N [Metformin]	7740		
O=C(O)Cc1ccccc1Nc1c(Cl)cccc1Cl [Diclofenac]			Hepatotoxic/non-hepatotoxic (man; in vivo): Hepatotoxic
